Laboratory results reported in a melting point compilation (Tetko et al.; mined from patent text by program, amines drawn as free bases though some values may be those of a salt).

SMILES | melting point
CCOc1cc(COc2nn(-c3ccccc3)cc2/C=C/P(=O)(OCC)OCC)ccc1OCc1nc(-c2ccco2)oc1C | 117 to 118 °C
CC(=O)C(O)C1OC(O)(N=C=O)C(O)(C(C)=O)C(O)(C(C)=O)C1(O)C(C)=O (stereo unspecified) | 113 to 115 °C
CC(=O)Nc1ccc(C=C2C(=S)c3cc(C)ccc3OC2c2ccccc2)cc1 (stereo unspecified) | 197 to 198 °C
COc1ccc(-c2nnn(-c3c(Cl)cc(Cl)cc3I)c2N)cc1 | 72.5 to 73.6 °C
O=Cc1ccc(O)c(CCl)c1 | 123 to 124 °C
C#CCOc1ccc2ccc(NC(=O)c3ccc(OC)cc3)nc2n1 | 140 °C
FC(F)(F)c1cccc(-c2cc(C(F)(F)F)n3ncc(I)c3n2)c1 | 142 °C
CSc1cn(C)c2cc(-c3cccc(Cl)c3)sc2c1=O | 234 to 236 °C
O=C(Oc1ccccc1)N1CCCc2nc3ccccc3c(O)c2C1 | 299 °C
O=C1Cc2cc(C(O)CN3CCC(O)(c4ccccc4)CC3)ccc2N1 (stereo unspecified) | 192 to 194 °C
Cc1ccc(O)c(NC(=O)c2cc(C)sc2Br)c1 | 173 to 175 °C
Cc1cn(C(C)C(=O)N(C)C)nc1-c1ccco1 (stereo unspecified) | 93 to 95 °C
C=CCC(C)(C)C(NC(=O)c1ccc(Cl)cc1)Nc1c(Nc2cccnc2)c(=O)c1=O (stereo unspecified) | 242 to 243 °C
O=C(NCCSCc1cccc([N+](=O)[O-])c1)c1c(Cl)cccc1Cl | 76 to 78 °C
CCOC(=O)c1c(N2CCN(C(=O)c3cccs3)CC2)c2cc(F)cnc2n(Cc2cccc(F)c2)c1=O | 113 °C
N#Cc1nn(-c2c(Cl)cc(C(F)(F)F)cc2Cl)c(N)c1-c1ccoc1S(=O)C(F)(F)F (stereo unspecified) | 141 to 142 °C
C#CCOc1cc(C(=O)O)cc(Cl)c1OCC#C | 158 to 159 °C
COc1ccc(N2CCN(CCC3OCCc4ccc(Br)cc43)CC2)cc1 (stereo unspecified) | 78 to 79 °C
COc1ccc(SSC)cc1 | 98 to 100 °C
CCOc1ccc(C(c2ccc(C(C)(C)C)cc2)C(C)Cl)cc1 (stereo unspecified) | 74 to 75 °C
CS(=O)(=O)CCOS(C)(=O)=O | 55 to 57 °C
COc1ccc(Oc2c(C)cc([N+](=O)[O-])cc2C)cc1Cc1ccc(F)cc1 | 105 to 110 °C
CCOC(=O)C(=CNC1CC1)C(=O)c1cc(F)c(Cl)c(C#N)c1Cl | 65 to 67 °C

SMILES | melting point
CCC1(c2ccc(C(O)C(C)(C)C)cc2)OCCO1 (stereo unspecified) | 52 to 56 °C
O=C1CCCc2nc3ccccc3c(NCc3ccc(Cl)cc3)c21 | 162 to 164 °C
Cc1c(NC(=O)c2ccccc2[N+](=O)[O-])cccc1C(F)(F)F | 188 to 189 °C
NC(=O)N(O)Cc1ccc(-c2ccccc2)s1 | 174 °C
CC(C)(C)NCC(O)COc1ccc(-c2nc(C(N)=O)c[nH]2)cc1 (stereo unspecified) | 149 to 154 °C
O=C(Nc1ncccn1)Nc1cccc2c1C1CCCCN1C2=O (stereo unspecified) | 232 °C
[N-]=[N+]=NC1CC(n2ccc(N)nc2=O)OC1CO (stereo unspecified) | 174 to 176 °C
CCNC(=O)C1OC(n2cnc3c(NNC(=O)c4ccccc4)ncnc32)C2OC(C)(C)OC12 (stereo unspecified) | 116 to 117 °C
CCN(CC)C(=S)Oc1ccc2c(c1)Oc1ccccc1S2 | 121 to 123 °C
Cc1c(-c2ccccc2)oc2c(C(=O)N(C)CCCl)cccc2c1=O | 126 to 128 °C
Nc1ncc(-c2ccc(=O)n(Cc3ccccc3)n2)c(-c2ccccc2)n1 | 229 to 230 °C
Cc1ccc(-c2ccc(C)cc2[N+](=O)[O-])c([N+](=O)[O-])c1 | 138 to 141 °C
O=C(O)Cc1cc(C2CC2)ccc1Nc1ccc(-c2ccc(F)cc2)cc1F | 182 to 183 °C
COc1ccc(C(=O)C2=C(C)C(=O)C3C=CC=CC3C2=O)cc1 (stereo unspecified) | 150 to 151 °C
C=C1C[C@@H]2[C@H](CC[C@]3(C)C(=O)CC[C@@H]23)[C@@]2(C)CCC(=O)C(SCC)=C12 | 140 to 145 °C
ClCCOc1ccc2c(c1)oc1cc(Cl)ccc12 | 105 to 107 °C
NS(=O)(=O)NC(c1ccccc1)P(=O)(Oc1ccccc1)Oc1ccccc1 (stereo unspecified) | 171 to 174 °C
CC1=C(C(=O)OC(C)(C)C)C(c2cccc(F)c2F)C(C(=O)OC(C)(C)C)=C(C)N1 | 192 to 194 °C
COc1cc2c(cc1-c1ccccc1F)NC(=O)CC(c1cccc(C#N)c1)=N2 | 245 to 247 °C
Nc1nc(-n2cc(C(=O)O)c(=O)c3c(F)c(F)c(F)c(F)c32)c(F)cc1F | 236 to 242 °C
O=COCC#Cc1cc(F)c2ncc(C(=O)NCc3ccc(Cl)cc3)c(O)c2c1 | 231 to 233 °C
CC(C)(C)c1ccc(OCC(O)CN2CCC3(CC2)CSC2=C(O3)c3ccccc3C(=O)C2=O)cc1 (stereo unspecified) | 150 to 152 °C
Cn1c(=O)cc(CCc2ccc(Cl)s2)c2cc(C(=O)c3ccc(Cl)cc3)ccc21 | 151 °C

Next, values leading:

melting point | SMILES
339 to 341 °C | O=c1ccn(-c2ccc(-c3ccc(=O)[nH]n3)cc2)cc1
202 to 206 °C | C[C@@H](n1cnc2cc(C=NNS(N)(=O)=O)ccc2c1=O)[C@](O)(Cn1cncn1)c1ccc(F)cc1F
191 °C | COC(=O)c1c(C(C)C)nc2c(c1-c1ccc(F)cc1)CCC(=O)N2
92 to 94 °C | Cc1cccc(C(=O)CC2CCCN(C)C2)c1 (stereo unspecified)
145 to 146 °C | N#CCCNC(=O)c1cccc(-c2cccc3c2OC(Cc2cccc(C(F)(F)F)c2)C3)c1 (stereo unspecified)
139 to 141 °C | CCCCCCCCCCNC(=O)c1cc(NCCC(=O)O)c(CCC(=O)O)c(C(=O)NCCCCCCCCCC)c1
143 to 146 °C | CC1(C)C2CC[C@]1(CS(=O)(=O)NCCNCC1COc3ccccc3O1)C(=O)C2 (stereo partly specified)
116 °C | CCOC(=O)N1C(C)=CC(C(=O)OCC)(c2cccc(OCC3CO3)c2)C=C1C (stereo unspecified)
96 to 98 °C | CCOP(=O)(OCC)C1(P(=O)(OCC)OCC)CC(C(=O)CC)=NN1
180 to 181 °C | CCCCNC(=O)NS(=O)(=O)c1c(C(=O)OCC)cnn1-c1ccccn1
208 to 209 °C | COc1cc(OC)c(-c2cc3ccccc3s2)cc1/C=C/C(=O)c1ccc(C(=O)NC(=O)C(C)C)cc1
126 °C | C=C(C)c1ccc2c(c1)C(=O)c1ccccc1C2=O
158 to 160 °C | COC(=O)C(O)=CC(=O)c1cn(Cc2ccccc2F)c(=O)n(Cc2ccccc2F)c1=O
252 to 255 °C | COc1ccc2[nH]c3c(c2c1)C[C@@]1(C)C(=O)N(CCN2CCCC2)C(=O)N1[C@@H]3c1cccc(O)c1 (racemic)
259 to 262 °C | CC(=O)OC1CN(c2c(F)cc3c(=O)c(C(=O)O)cn(C4CC4)c3c2F)C1
137 to 139 °C | Cc1cc(C)c2cnc(=O)n(CCN(C)C)c2n1
141 to 142 °C | CCOC(=O)CCCOc1cccc2cc(/C(C)=C/C(=O)Nc3ccc(OC)cc3)oc12
160 to 162 °C | S=c1nc(-c2cc(Cl)sc2Cl)[nH]n1Cc1ccccc1
157 to 159 °C | Cc1ccc(NC(=O)NCc2ccc3c(c2)CN(C2CCC(=O)N(COC(=O)C4CCN(C(=O)OC(C)(C)C)CC4)C2=O)C3=O)cc1Cl (stereo unspecified)
146 to 148 °C | Cc1noc(-c2ccc(F)cc2N)n1
215 to 216 °C | Cc1cc2cc(OCC(=O)O)c(Cl)c(Cl)c2s1
161 to 162 °C | Cc1nc(N)c2nc(CONC(C)C)n(CCCCNC(=O)c3ccccc3)c2c1C
43.3 to 45.8 °C | C[C@H]1CCCC(C)(C)[C@@H]1[C@H](O)c1ccc(F)c(F)c1
256 to 260 °C | C=Cn1cc(C(=O)O)c(=O)c2cc(F)c(N3CCNCC3)nc21
71 to 73 °C | NCc1c([N+](=O)[O-])ccc(N2CCCC2)c1Cl

melting point | SMILES
195 to 198 °C | COc1cc(C(=O)N[C@H]2CCNC2)ccc1Nc1ncc2c(n1)N(C1CCCCC1)CC(F)(F)C(=O)N2C
130 to 132 °C | Cc1cc(-c2ccc(-c3ccccc3)c(-c3ccc4c(c3)C(C)(C)CCC4(C)C)c2)ccc1C(=O)O
155 to 157 °C | CN(CC#N)S(=O)(=O)c1cc(-n2c(=O)cc(C(F)(F)F)n(C)c2=O)c(F)cc1Cl
> 300 °C | Nc1nc(F)nc2nc[nH]c12
168 to 172 °C | CC1Cc2cc(S(=O)(=O)n3cc(-c4ccccc4)[nH]c3=O)ccc2N1C(=O)c1ccc([N+](=O)[O-])cc1 (stereo unspecified)
56 to 58 °C | CCCCCCCCOC(=O)CS(=O)(=O)Nc1c(C(C)C)cccc1C(C)C
107 to 108 °C | CCCC[C@H](NC(=O)[C@H](CC(C)C)NC(=O)c1cc(F)c(F)c(F)c1F)C(=O)CSCc1ccco1
289 to 290 °C | CN(C)C(=O)Cc1nn(-c2ccccc2)c(=O)c2[nH]c3ccc(F)cc3c12
58 to 59 °C | COC(=O)c1ccc(CCCOCCCCCNCC(O)c2cc(Cl)c(N)c(Cl)c2)o1 (stereo unspecified)
78 to 79 °C | COc1ccc(/C(C)=C/c2ccncc2)cc1OC1CCCC1
150 °C | CC(=O)c1nn(-c2c(Cl)cc(C(F)(F)F)cc2Cl)cc1C1CC1(Br)Br (stereo unspecified)
192 to 193 °C | CONC(=N)c1nc(Cl)c(-c2c(F)cc(F)cc2F)c(N2CCCO2)n1
137 to 138 °C | CN1CC(c2ccccc2)c2ccccc2C(c2ccccc2)C1(C)C (stereo unspecified)
220 to 223 °C | CCOC(=O)C(=O)c1csc(NC(=O)Nc2ccc(F)cc2)n1
178 to 179 °C | COCCCNc1ncnc2c1sc1nc(N3CCOCC3)c3c(c12)CC(C)(C)OC3
151 to 152 °C | Clc1ccc(COc2ccc(-c3nc(COc4ccc(CCCn5ccnc5)cc4)co3)cc2)cc1
63 to 65 °C | CC(=O)c1ccc(OCC(O)COc2ccccc2)cc1O (stereo unspecified)
167 °C | O=C1CCn2c(Cc3ccc(Cl)cc3)nc3c(Cl)ccc1c32
150 to 152 °C | CCOC(=O)Cc1ccnc2c(NC(=O)c3c(Cl)cccc3Cl)cccc12
112 °C | C=CCC1(CC=C)CCC(=Cc2ccc(F)cc2)C1(O)Cn1cncn1 (stereo unspecified)
186 to 188 °C | CCc1nccc2[nH]c(=O)ccc12
125 to 127 °C | COc1ccc(C=C(C#N)c2ccncc2)cc1OC1CCCC1
278 to 284 °C | CC1(C)Oc2ccc(C#N)cc2C(n2ccc(-c3ccc([N+](=O)[O-])cc3)cc2=O)C1O (stereo unspecified)
100 to 102 °C | CC(C)N(C(=O)C(F)(F)F)c1cc2c(cc1C(=O)c1ccccc1)OCO2
129 to 131 °C | O=C(CC(c1ccc(OC(F)F)c(OCC2CC2)c1)N1C(=O)c2ccccc2C1=O)NO (stereo unspecified)
